In assay [1] the target is T1, SARS-CoV-2 NSP3 macrodomain (Mac1) (Severe acute respiratory syndrome coronavirus 2, UniProt P0DTD1). Kind of assay: biochemical. The class given is binding. The note with it: for IC50: dose-response, read-out: IC50.
For assay [2], the target named is T1, SARS-CoV-2 NSP3 macrodomain (Mac1). In kind it is binding. The note with it: for PanDDA run, TFA/DMSO background map: 1-BDC / PanDDA run, TFA/DMSO background map: Hit: crystal soak 10 mM; for Number of isomers bound: ligand modeling, Mac1 crystal soak.
Where [3] appears, read: SARS CoV-2 macrodomain HTRF assay, single dose concentration 200 μM, read-out: Average % competition.
Setting [4] is: compound at 200 μM, mean of three to four technical replicates, read-out: % competition at 200 μM (preliminary HTRF screen).
Setting [5] is: SARS CoV-2 macrodomain HTRF assay.
Where [6] appears, read: stereoisomer(s) modeled as bound, residues 201/202/203.
Where [7] appears, read: stereoisomer(s)/conformations of the soaked ligand modeled in the Mac1 crystal structure.
The mark [8] stands for this setting: Single dose, concentration 200 μM.
Where [9] appears, read: SARS CoV-2 macrodomain HTRF assay, single dose concentration 200 μM.

Where two headings read alike, the source gives them in different places.

On to `OCC1CC2(CCCCC2)CN1c1ncnc2[nH]ccc12` (stereo not shown) [AVI-3727], for which the inhibition at 200 µM in assay [1] (setting [3]) was 67%. The inhibition at 200 µM in assay [1] (setting [4]) turned out to be 67%. For the same molecule, in assay [2], the “PanDDA run, TFA/DMSO background map: 1-BDC” value amounted to 0.25; the “PanDDA run, TFA/DMSO background map: Hit” value is “TRUE”; the “Number of isomers bound” value is reported as 1.
Regarding `OC[C@@H]1C[C@@H]2CCC[C@@H]2N1c1ncnc2[nH]ccc12` [AVI-3720], in assay [1] (setting [5]), the affinity, expressed as Ki, was 26 µM; the “Ligand efficiency (binding enery per heavy atom)” value is reported as 0.33; the IC50 is 28 µM. For the same molecule, the “Number of isomers bound” value in assay [2] is recorded as 1. Also, in assay [2] (setting [6]), the Isomers modeled result is reported as “SSS”.
With `OCC(Nc1ncnc2[nH]ccc12)C1CC1` (stereo not shown) [AVI-3651], in assay [1] (setting [5]), the Ki was 45 µM, the “Ligand efficiency (binding enery per heavy atom)” value is on record as 0.38 and the IC50 was 48 µM. In assay [2], the “PanDDA run, TFA/DMSO background map: 1-BDC” value was found to be 0.16; the “PanDDA run, TFA/DMSO background map: Hit” value is reported as “TRUE”; the “Number of isomers bound” value is given as 1.
`OC[C@@H]1C[C@H](F)CN1c1ncnc2[nH]ccc12` [AVI-609]: the inhibition at 200 µM in assay [1] (setting [3]) and in assay [1] (setting [4]) was 52% each time. The “Number of isomers bound” value in assay [2] is listed as 1.
Turning to `OCC1CC2(CCC2)CN1c1ncnc2[nH]ccc12` (stereo not shown) [AVI-3728], the inhibition at 200 µM in assay [1] (setting [3]) amounted to 79%. In addition, the inhibition at 200 µM in assay [1] (setting [4]) amounted to 79%. In assay [2], the “PanDDA run, TFA/DMSO background map: 1-BDC” value was found to be 0.26; the “PanDDA run, TFA/DMSO background map: Hit” value is “TRUE”; the “Number of isomers bound” value stood at 1. The Isomers modeled result in assay [2] (setting [6]) was “S,S”.
Take `CC1CCN(c2ncnc3[nH]ccc23)C1CO` (stereo not shown) [AVI-3655]: the inhibition at 200 µM in assay [1] (setting [3]) was 75%. The inhibition at 200 µM in assay [1] (setting [4]) is 75%. Also, in assay [2], the “PanDDA run, TFA/DMSO background map: 1-BDC” value amounted to 0.18; the “PanDDA run, TFA/DMSO background map: Hit” value was “TRUE”; the “Number of isomers bound” value was determined as 1.
As to `CC(C)(O)C1C2CCCCC2CN1c1ncnc2[nH]ccc12` (stereo not shown) [AVI-4127], in assay [1] (setting [5]), the Ki was found to be 120 µM, the “Ligand efficiency (binding enery per heavy atom)” value came to 0.25 and the IC50 was 130 µM. Besides, the Isomers modeled entry in assay [2] (setting [7]) is on record as “SSR,SRS”.
In the case of `Cc1c[nH]c2ncnc(NCC3(O)CCC(C)CC3)c12` (stereo not shown) [AVI-4331], in assay [1] (setting [5]), the “Ligand efficiency (binding enery per heavy atom)” value was found to be 0.26 and the IC50 stood at 210 µM. Besides, in assay [2] (setting [7]), the Isomers modeled result is recorded as “rr”.
`OC1CCN(c2ncnc3[nH]ccc23)C1` (stereo not shown) [AVI-3661]: the inhibition at 200 µM in assay [1] (setting [3]) came out at 11%. The inhibition at 200 µM in assay [1] (setting [4]) came out at 11%. In addition, in assay [2], the “PanDDA run, TFA/DMSO background map: 1-BDC” value came out at 0.12 and the “PanDDA run, TFA/DMSO background map: Hit” value is “TRUE”.
Regarding `OC(c1ccccc1)C1CCCN1c1ncnc2[nH]ccc12` (stereo not shown) [AVI-3652], in assay [1] (setting [3]), the inhibition at 200 µM is 35%. In assay [1] (setting [4]), the inhibition at 200 µM was 35%. In assay [2], the “PanDDA run, TFA/DMSO background map: 1-BDC” value came to 0.16; the “PanDDA run, TFA/DMSO background map: Hit” value is reported as “TRUE”; the “Number of isomers bound” value is 1.
Molecule `OCC(CC1CCOC1)Nc1ncnc2[nH]ccc12` (stereo not shown) [AVI-3665] had an Average % competition in assay [1] (setting [8]) of 11%. Further, the inhibition at 200 µM in assay [1] (setting [4]) amounted to 11%. In addition, in assay [2], the “PanDDA run, TFA/DMSO background map: 1-BDC” value is 0.15; the “PanDDA run, TFA/DMSO background map: Hit” value is recorded as “TRUE”; the “Number of isomers bound” value worked out at 1.
On to `CCC(C)(CO)Nc1ncnc2[nH]ccc12` (stereo not shown) [AVI-3697], for which, in assay [1] (setting [5]), the Ki was 34 µM, the “Ligand efficiency (binding enery per heavy atom)” value is listed as 0.39 and the IC50 is 36 µM. Further, in assay [2], the “Number of isomers bound” value is on record as 1.
Turning to `O=C(O)C(F)(F)F.OCC12CC(CN1c1ncnc3[nH]ccc13)C2` [AVI-3681], the inhibition at 200 µM in assay [1] (setting [3]) is 54%. Besides, the inhibition at 200 µM in assay [1] (setting [4]) was determined as 54%. In assay [2], the “PanDDA run, TFA/DMSO background map: 1-BDC” value is 0.12; the “PanDDA run, TFA/DMSO background map: Hit” value is recorded as “TRUE”; the “Number of isomers bound” value is listed as 1.
For `CCCC(CO)Nc1ncnc2[nH]ccc12` (stereo not shown) [AVI-3643], in assay [1] (Single dose, concentration 200 μM, read-out: Average % competition), the inhibition at 200 µM worked out at 63%. Besides, in assay [1] (setting [4]), the inhibition at 200 µM came to 63%. Also, in assay [2], the “PanDDA run, TFA/DMSO background map: 1-BDC” value was found to be 0.14; the “PanDDA run, TFA/DMSO background map: Hit” value is “TRUE”; the “Number of isomers bound” value was 1.
For `OCC(Cc1cncs1)Nc1ncnc2[nH]ccc12` (stereo not shown) [AVI-3703], the Average % competition in assay [1] (setting [8]) stood at 28%. Also, in assay [1] (setting [4]), the inhibition at 200 µM is 28%. Further, in assay [2], the “PanDDA run, TFA/DMSO background map: 1-BDC” value was determined as 0.1; the “PanDDA run, TFA/DMSO background map: Hit” value was “TRUE”; the “Number of isomers bound” value amounted to 1.
On to `OCC(Cc1ccccn1)Nc1ncnc2[nH]ccc12` (stereo not shown) [AVI-3696], for which the Average % competition in assay [1] (setting [8]) is 34%. Further, the inhibition at 200 µM in assay [1] (setting [4]) was found to be 34%. Besides, the “Number of isomers bound” value in assay [2] amounted to 2. In assay [2] (setting [6]), the Isomers modeled result is recorded as “R,S”.
The molecule `O[C@@H]1CN(c2ncnc3[nH]ccc23)C[C@H]1F` [AVI-616] displayed an Average % competition in assay [1] (setting [9]) of 15%. Also, the inhibition at 200 µM in assay [1] (setting [4]) was found to be 15%. Moreover, the “Number of isomers bound” value in assay [2] is listed as 1.
In assay [1] (setting [8]), `OCC(Cc1ccc(I)cc1)Nc1ncnc2[nH]ccc12` (stereo not shown) [AVI-3686] returned an Average % competition of less than 10%. In addition, the inhibition at 200 µM in assay [1] (setting [4]) is less than 10%. Besides, in assay [2], the “PanDDA run, TFA/DMSO background map: 1-BDC” value was found to be 0.19; the “PanDDA run, TFA/DMSO background map: Hit” value was “TRUE”; the “Number of isomers bound” value came to 2. The Isomers modeled result in assay [2] (setting [6]) is given as “S,R”.
Molecule `OCC(Cc1c[nH]c2ccccc12)Nc1ncnc2[nH]ccc12` (stereo not shown) [AVI-3650] displayed an Average % competition in assay [1] (setting [8]) of 71%. Moreover, in assay [1] (setting [4]), the inhibition at 200 µM was 71%. Further, in assay [2], the “PanDDA run, TFA/DMSO background map: 1-BDC” value is 0.11; the “PanDDA run, TFA/DMSO background map: Hit” value is listed as “TRUE”; the “Number of isomers bound” value is reported as 2. In addition, the Isomers modeled entry in assay [2] (setting [6]) is given as “R,S”.
`Cc1ccc(CC(CO)Nc2ncnc3[nH]ccc23)cc1` (stereo not shown) [AVI-3683]: in assay [1] (setting [8]), the Average % competition was determined as 14%. The inhibition at 200 µM in assay [1] (setting [4]) was determined as 14%. Besides, the “Number of isomers bound” value in assay [2] came out at 2. For the same molecule, in assay [2] (setting [6]), the Isomers modeled result is reported as “S,R”.
The molecule `CCC1(O)CCN(c2ncnc3[nH]ccc23)C1` (stereo not shown) [AVI-612] had an Average % competition in assay [1] (setting [9]) of 22%. Besides, the inhibition at 200 µM in assay [1] (setting [4]) was found to be 22%. Further, the “Number of isomers bound” value in assay [2] worked out at 1.
Turning to `CC(C)(C)[C@@H]1CCN(c2ncnc3[nH]ccc23)[C@H](CO)C1` [AVI-3722], the inhibition at 200 µM in assay [1] (setting [3]) and in assay [1] (setting [4]) was 22% in each case. Moreover, in assay [2], the “Number of isomers bound” value is reported as 1.
`CC1(C)C[C@@H](CO)N(c2ncnc3[nH]ccc23)C1.O=C(O)C(F)(F)F` [AVI-3704]: in assay [1] (setting [5]), the Ki was found to be 27 µM, the “Ligand efficiency (binding enery per heavy atom)” value amounted to 0.35 and the IC50 was determined as 29 µM. Moreover, in assay [2], the “Number of isomers bound” value is reported as 1.

Values taken from PMC12118597 (Science Advances, 2025).
